Laboratory results from US20240199977A1, “COMPOSITIONS COMPRISING A META-(C1-C4 ALKOXY) […]” (The Procter & Gamble Company, priority 2022, published 2024).
In brackets after ≈: the same amount, converted by molar mass. Read-outs that look alike come from different tables or passages of the source.

Assays:
[1] = physchem; settings: oil or lipid, thermodynamic from solid
[2] = Headspace Method, Air/IPM partition (dynamic headspace GC/MS); format: physicochemical; settings: for Air/IPM partition coef / Headspace: 30° C.; for Headspace: above IPM solution of about 2.1E+06 ng/mL
Protocol: (§1) Perfume headspace data is collected for various materials according to the method provided below.
(§2) The partition coefficients are calculated by determining the amount of PRM in the headspace above a solution with a known concentration using a GC/FID-MS (Agilent 7890 and 5977A MSD) with a thermal desorption unit (Gerstel MPS2) and Dynamic Headspace Sampler (Gerstel DHS). This technique allows for automated headspace collections using the MultiPurposeSampler (MPS). The PRMs of interest are prepared at a known concentration in isopropyl myristate (IPM) or propylene glycol monomethyl ether (DPM), and 1 mL is pipetted in a 20 mL headspace vial.
(§3) DHS Conditions: The sample is tempered in the unit at 30° C. A helium stream at 10 mls/min purges 20 mL of headspace containing the analytes above the sample onto the sorbent tube (TDU) containing 25 mg of TenaxTA 35/60 (Restek cat # 25701).
(§4) TDU conditions: The sorbent tube is desorbed with a program starting at 30° C. solvent vent for 2 min then ramped at 720° C./min to 270 ° C. and held for 8 min. The analytes are refocused on a glass bead liner at -60° C. then desorbed at a rate of 12 ° C./s to 270° C. onto the GC column.
(§5) GC/MS conditions: Agilent 122-5532UI column of 30 m×250 μm×0.25 μm and a flow rate of 1.5 mL/min is utilized. A temperature program of 50° C. to 280° C. with a 2 min hold and a ramp rate of 12° C./min is suitable. Scan or SIM mode MSD parameters with a solvent delay for the DPM are applied to achieve appropriate detection.
(§6) Analytical standards can be obtained from Sigma Aldrich, St. Louis, MO and BioSynth, UK. A stock solution is prepared at approximately 0.5 g/L. The stock solution is then diluted to 4 to 5 concentrations ranging from approximately 0.05 g/L to 0.00005 g/L. These standard solutions are then analyzed by GC/MS. This analysis is performed by using the same TDU desorption and GC/MS conditions described above with a luL liquid injection onto the TDU tube instead of the DHS collection. The amount injected on column and the area responses of the target m/z are utilized to create a calibration plot with a linear fit.
(§7) Quantification of the headspace is performed by the PRM target m/z area response of the perfume component and the linear equation of the calibration plot.
(§8) Perfume headspace data is collected for various materials according to the Headspace 5 Method provided above in the Test Methods section. The Air/Solvent partition coefficients are determined and indexed accordingly (e.g., where the partition coefficient for ethylvanillin is set at 1.00).

[3] = Headspace Method, Air/DPM partition (dynamic headspace GC/MS); format: physicochemical; settings: for Air/DPM partition coef / Headspace: 30° C.; for Headspace: above DPM solution of 1.1E+07 ng/mL
Protocol: as §1, §2, §3, §4, §5, §6, §7, §8

| SMILES | solubility [1] [mg/mL] | Air/IPM partition coef ([2]; average of two replicates) | Headspace ([2]; average of two replicates) [ng/mL] | Ethylvanillin Indexed Air/IPM partition coefficient ([2]; indexed, ethylvanillin set at 1.00, average of two replicates) | Air/DPM partition coef ([3]; average of three replicates) | Headspace ([3]; average of three replicates) [ng/mL] | Ethylvanillin Indexed Air/DPM partition coefficient ([3]; indexed, ethylvanillin set at 1.00, average of three replicates) | Ethylvanillin Indexed Air/IPM partition coefficient [2] | goes into the headspace more than its structural isomer ethylvanillin ([2]; out of IPM) | Ethylvanillin Indexed Air/DPM partition coefficient [3] | goes into the headspace more than ethylvanillin ([3]; out of DPM) |
| --- | --- | --- | --- | --- | --- | --- | --- | --- | --- | --- | --- |
| CCOc1cc(C=O)ccc1O [Ethylvanillin] | 38 (≈ 229 mM) | 1.95E−08 ng/mL in air per ng/mL in IPM | 0.0402 | 1.00 | 2.45E−09 ng/mL in air per ng/mL in DPM | 0.0262 | 1.00 |  |  |  |  |
| CCOc1cccc(C=O)c1O [ortho-Ethylvanillin, 2-hydroxy-3-ethoxybenzaldehyde] | 73 (≈ 439 mM) | 1.21E−07 ng/mL in air per ng/mL in IPM | 0.2521 |  | 2.31E−07 ng/mL in air per ng/mL in DPM | 2.4678 |  | 6.17 | about 6.2 X | 93.7 | about 94 X |
| COc1cc(C=O)ccc1O [Vanillin] |  | 2.73E−08 ng/mL in air per ng/mL in IPM | 0.0563 |  | 1.21E−08 ng/mL in air per ng/mL in DPM | 0.1288 |  | 1.40 |  | 4.88 |  |
